Patent US11142515B2, “Pyrazolyl-ureas as kinase inhibitors” (RESPIVERT LIMITED, priority 2014, dated 2021)

Experiments:
[1] = target: T1, p38 MAPKα isoform (MAPK14) (Homo sapiens, UniProt Q16539); test: p38 MAPKα enzyme inhibition (Z-LYTE FRET); format: biochemical; conditions: Table 2B, unit inferred; read-out: p38 MAPKα (Enzyme Profile)
T1 construct: purchased Life Technologies
Method: (§1) The enzyme inhibitory activities of compounds disclosed herein were determined by FRET using synthetic peptides labelled with both donor and acceptor fluorophores (Z-LYTE, Life Technologies, Paisley, UK).
The inhibitory activities of compounds of the invention against the p38 MAPKα isoform (MAPK14: Life Technologies), were evaluated indirectly by determining the level of activation/phosphorylation of the target peptide of the p38 MAPKα down-stream molecule, MAPKAP-K2. The enzyme (40 ng/mL, 2.5 μL) was incubated with the test compound (2.5 μL of either 40 μg/mL, 12 μg/mL, 4 μg/mL, 1.2 μg/mL, 0.4 μg/mL, 0.12 μg/mL, 0.04 μg/mL, 0.012 μg/mL, 0.004 μg/mL or 0.0012 μg/mL) for 2 h at RT. […] Development reagent (protease, 5 μL) was added for 1 h prior to detection in a fluorescence microplate reader (EnVision, Perkin Elmer, Waltham, Mass., USA).
(§2) In all cases, the site-specific protease cleaves non-phosphorylated peptide only and eliminates the FRET signal. Phosphorylation levels of each reaction were calculated using the ratio of coumarin emission (donor) over fluorescein emission (acceptor), for which low ratios indicate high phosphorylation and high ratios indicate low phosphorylation levels.

[2] = target: T2, p38MAPKγ (MAPK12) (Homo sapiens, UniProt P53778); test: p38 MAPKγ enzyme inhibition (Z-LYTE FRET); format: biochemical; conditions: Table 2B, unit inferred; read-out: p38 MAPKγ (Enzyme Profile)
T2 construct: purchased Life Technologies
T2 sequence (P53778 1-367): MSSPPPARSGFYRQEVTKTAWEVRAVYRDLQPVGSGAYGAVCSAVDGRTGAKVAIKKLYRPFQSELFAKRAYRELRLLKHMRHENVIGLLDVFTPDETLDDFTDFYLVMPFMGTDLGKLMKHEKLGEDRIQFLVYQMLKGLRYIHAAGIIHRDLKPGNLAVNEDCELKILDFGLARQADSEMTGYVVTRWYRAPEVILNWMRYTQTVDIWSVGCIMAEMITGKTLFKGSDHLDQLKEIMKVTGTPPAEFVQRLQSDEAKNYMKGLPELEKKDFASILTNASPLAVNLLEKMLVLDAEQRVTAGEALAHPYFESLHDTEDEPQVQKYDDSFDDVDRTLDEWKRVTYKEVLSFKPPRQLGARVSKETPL
Method: as §1
The inhibitory activities of compounds of the invention against p38MAPKγ (MAPK12: Life Technologies), were evaluated by determining the level of activation/phosphorylation of the target peptide. The enzyme (800 ng/mL, 2.5 μL) was incubated with the test compound (2.5 μL at either 40 μg/mL, 12 μg/mL, 4 μg/mL, 1.2 μg/mL, 0.4 μg/mL, 0.12 μg/mL, 0.04 μg/mL, 0.012 μg/mL, 0.004 μg/mL or 0.0012 μg/mL) for 2 h at RT. The FRET peptides (8 μM, 2.5 μL), and appropriate ATP solution (2.5 μL, 400 μM) were then added to the enzymes/compound mixtures and incubated for 1 h at RT. Development reagent (protease, 5 μL) was added for 1 h prior to detection in a fluorescence microplate reader (EnVision, Perkin Elmer).
as §2

T1 sequence (Q16539 whole entry, canonical isoform): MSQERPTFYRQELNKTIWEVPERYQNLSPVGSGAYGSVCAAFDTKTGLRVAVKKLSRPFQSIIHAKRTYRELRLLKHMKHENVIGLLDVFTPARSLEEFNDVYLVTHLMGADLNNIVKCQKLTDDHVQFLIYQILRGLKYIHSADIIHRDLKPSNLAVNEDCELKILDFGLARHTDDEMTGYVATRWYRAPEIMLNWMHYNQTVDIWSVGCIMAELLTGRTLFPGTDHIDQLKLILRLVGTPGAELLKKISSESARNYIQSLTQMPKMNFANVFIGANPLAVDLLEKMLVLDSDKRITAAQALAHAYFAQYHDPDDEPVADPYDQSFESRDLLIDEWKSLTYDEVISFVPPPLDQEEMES

SMILES	IC50 [1] [nM]	IC50 [2] [nM]
CCc1ncc(Nc2cc(COc3ccc(NC(=O)Nc4cc(C(C)(C)C)nn4-c4ccc(C)cc4)c4ccccc34)ccn2)nc1CC [Example 139, 1-(3-(tert-butyl)-1-(p-tolyl)-1H-pyrazol-5-yl)-3-(4-((2-((5,6-diethylpyrazin-2-yl)amino)pyridin-4-yl)methoxy)naphthalen-1-yl) urea]	53	1110
CCc1cncc(Nc2cc(COc3ccc(NC(=O)Nc4cc(C(C)(C)C)nn4-c4ccc(COC)cc4)c4ccccc34)ccn2)n1 [Example 210, 1-(3-(tert-butyl)-1-(4-(methoxymethyl)phenyl)-1H-pyrazol-5-yl)-3-(4-((2-((6-ethylpyrazin-2-yl)amino)pyridin-4-yl)methoxy)naphthalen-1-yl)urea]	28	509
COc1cc(-n2nc(C(C)(C)C)cc2NC(=O)Nc2ccc(OCc3ccnc(Nc4cnc(C)c(C)n4)c3)c3ccccc23)ccc1C [Example 208, 1-(3-(tert-butyl)-1-(3-methoxy-4-methylphenyl)-1H-pyrazol-5-yl)-3-(4-((2-((5,6-dimethylpyrazin-2-yl)amino)pyridin-4-yl)methoxy)naphthalen-1-yl) urea]	50	> 15200
CC(C)(C)c1cc(NC(=O)Nc2ccc(OCc3ccnc(Nc4cnccn4)c3)c3ccccc23)n(-c2cccc(CO)c2)n1 [Example 174, 1-(3-(tert-butyl)-1-(3-(hydroxymethyl)phenyl)-1H-pyrazol-5-yl)-3-(4-((2-(pyrazin-2-ylamino)pyridin-4-yl)methoxy)naphthalen-1-yl)urea]	7.7	56
COCc1cccc(-n2nc(C(C)(C)C)cc2NC(=O)Nc2ccc(OCc3ccnc(Nc4cnc(C(=O)N5CCCC5)cn4)c3)c3ccccc23)c1 [Example 71]	24	272
Cc1ccc(-n2nc(C(C)(C)C)cc2NC(=O)Nc2ccc(OCc3ccnc(Nc4cnc(C(=O)NCCO)cn4)c3)c3ccccc23)cc1 [Example 53, 5-((4-(((4-(3-(3-(tert-Butyl)-1-(p-tolyl)-1H-pyrazol-5-yl)ureido)naphthalen-1-yl)oxy)methyl)pyridin-2-yl)amino)-N-(2-hydroxyethyl)pyrazine-2-carboxamide]	17	95
Cc1ccc(-n2nc(C(C)(C)C)cc2NC(=O)Nc2ccc(OCc3ccnc(Nc4cnc(C(=O)N5CCC(F)CC5)cn4)c3)c3ccccc23)cc1 [Example 176, 1-(3-(tert-butyl)-1-(p-tolyl)-1H-pyrazol-5-yl)-3-(4-((2-((5-(4-fluoropiperidine-1-carbonyl)pyrazin-2-yl)amino)pyridin-4-yl)methoxy)naphthalen-1-yl)urea]	36	458
Cc1ccc(-n2nc(C(C)(C)C)cc2NC(=O)Nc2ccc(OCc3ccnc(Nc4cnc(C(=O)NC[C@H](O)CN5CCOCC5)cn4)c3)c3ccccc23)cc1 [Example 87]	–	63
Cc1ccc(-n2nc(C(C)(C)C)cc2NC(=O)Nc2ccc(OCc3ccnc(Nc4cnc(C(=O)N[C@@H]5CCN(C)C5)cn4)c3)c3ccccc23)cc1 [Example 82]	–	46
Cc1ccc(-n2nc(C(C)(C)C)cc2NC(=O)Nc2ccc(OCc3ccnc(Nc4cnc(C(=O)N[C@H]5CCN(C)C5)cn4)c3)c3ccccc23)cc1 [Example 83]	–	39

Other lines, results leading:

IC50 [1] [nM]	IC50 [2] [nM]	SMILES
27	> 14100	CCc1ccc(-n2nc(C(C)(C)C)cc2NC(=O)Nc2ccc(OCc3ccnc(Nc4cnc(C(=O)N5CCCC5)cn4)c3)c3ccccc23)cc1 [Example 229, 1-(3-(tert-butyl)-1-(4-ethyl-phenyl)-1H-pyrazol-5-yl)-3-(4-((2-((5-(pyrrolidine-1-carbonyl)pyrazin-2-yl)amino)pyridin-4-yl)methoxy)naphthalen-1-yl)urea]
11	174	COCc1cccc(-n2nc(C(C)(C)C)cc2NC(=O)Nc2ccc(OCc3ccnc(Nc4cnc(CN5CCOCC5)cn4)c3)c3ccccc23)c1 [Example 262, 1-(3-(tert-butyl)-1-(3-(methoxymethyl)phenyl)-1H-pyrazol-5-yl)-3-(4-((2-((5-(morpholinomethyl)pyrazin-2-yl)amino)pyridin-4-yl)methoxy)naphthalen-1-yl)urea]
14	130	CO[C@@H]1CCCN(C(=O)c2cnc(Nc3cc(COc4ccc(NC(=O)Nc5cc(C(C)(C)C)nn5-c5ccc(C)cc5)c5ccccc45)ccn3)cn2)C1 [Example 239, (R)-1-(3-(tert-butyl)-1-(p-tolyl)-1H-pyrazol-5-yl)-3-(4-((2-((5-(3-methoxy-piperidine-1-carbonyl)pyrazin-2-yl)amino)pyridin-4-yl)methoxy)naphthalen-1-yl)urea]
60	582	CCc1cncc(Nc2cc(COc3ccc(NC(=O)Nc4cc(C(C)(C)C)nn4-c4cc(F)cc(OC)c4)c4ccccc34)ccn2)n1 [Example 211, 1-(3-(tert-butyl)-1-(3-fluoro-5-methoxyphenyl)-1H-pyrazol-5-yl)-3-(4-((2-((6-ethylpyrazin-2-yl)amino)pyridin-4-yl)methoxy)naphthalen-1-yl)urea]
31	164	COc1cc(F)cc(-n2nc(C(C)(C)C)cc2NC(=O)Nc2ccc(OCc3ccnc(Nc4cnccn4)c3)c3ccccc23)c1 [Example 220, 1-(3-(tert-butyl)-1-(3-fluoro-5-methoxyphenyl)-1H-pyrazol-5-yl)-3-(4-((2-(pyrazin-2-ylamino)pyridin-4-yl)methoxy)naphthalen-1-yl)urea]
11	> 13700	COc1cc(F)cc(-n2nc(C(C)(C)C)cc2NC(=O)Nc2ccc(OCc3ccnc(Nc4cnc(C(=O)N5CCCC5)cn4)c3)c3ccccc23)c1 [Example 250, 1-(3-(tert-butyl)-1-(3-fluoro-5-methoxyphenyl)-1H-pyrazol-5-yl)-3-(4-((2-((5-(pyrrolidine-1-carbonyl)pyrazin-2-yl)amino)pyridin-4-yl)methoxy)naphthalen-1-yl)urea]
36	735	CCc1cncc(Nc2cc(COc3ccc(NC(=O)Nc4cc(C(C)(C)C)nn4-c4ccc(F)cc4)c4ccccc34)ccn2)n1 [Example 213, 1-(3-(tert-butyl)-1-(4-fluoro-phenyl)-1H-pyrazol-5-yl)-3-(4-((2-((6-ethylpyrazin-2-yl)amino)pyridin-4-yl)methoxy)naphthalen-1-yl)urea]
–	> 15100	COc1ccc(-n2nc(C(C)(C)C)cc2NC(=O)Nc2ccc(OCc3ccnc(Nc4cnc(C)c(C)n4)c3)c3ccccc23)cc1F [Example 252, 1-(3-(tert-butyl)-1-(3-fluoro-4-methoxyphenyl)-1H-pyrazol-5-yl)-3-(4-((2-((5,6-dimethylpyrazin-2-yl)amino)pyridin-4-yl)methoxy)naphthalen-1-yl)urea]
–	75	CC(C)(C)c1cc(NC(=O)Nc2ccc(OCc3ccnc(Nc4cnc(CO)cn4)c3)c3ccccc23)n(-c2cccc(F)c2)n1 [Example 253, 1-(3-(tert-butyl)-1-(3-fluoro-phenyl)-1H-pyrazol-5-yl)-3-(4-((2-((5-(hydroxymethyl)pyrazin-2-yl)amino)pyridin-4-yl)methoxy)naphthalen-1-yl)urea]
–	129	Cc1ccc(-n2nc(C(C)(C)C)cc2NC(=O)Nc2ccc(OCc3ccnc(Nc4cnc(C(=O)N5CCN6CCC[C@H]6C5)cn4)c3)c3ccccc23)cc1 [Example 275, (S)-1-(3-(tert-butyl)-1-(p-tolyl)-1H-pyrazol-5-yl)-3-(4-((2-((5-(octahydropyrrolo [1,2-a]pyrazine-2-carbonyl)pyrazin-2-yl)amino)pyridin-4-yl)methoxy)naphthalen-1-yl)urea]
